Data on four compounds can be found in patent US4537719A, “4-Methylsulfonyl-azetidinone derivatives” (Ajinomoto Company Incorporated, priority 1981, dated 1985).

T1 sequence (P05364 21-381): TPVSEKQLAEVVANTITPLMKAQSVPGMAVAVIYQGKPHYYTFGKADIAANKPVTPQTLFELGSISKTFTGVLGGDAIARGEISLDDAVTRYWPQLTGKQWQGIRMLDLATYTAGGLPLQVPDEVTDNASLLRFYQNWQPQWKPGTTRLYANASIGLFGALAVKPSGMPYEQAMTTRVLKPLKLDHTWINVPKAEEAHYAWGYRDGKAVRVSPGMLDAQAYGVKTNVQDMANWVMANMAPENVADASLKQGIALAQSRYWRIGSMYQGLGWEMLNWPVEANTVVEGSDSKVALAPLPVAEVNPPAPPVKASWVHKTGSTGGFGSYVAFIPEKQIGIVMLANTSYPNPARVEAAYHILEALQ

The experiment has as its target T1, β-lactamase (Enterobacter cloacae, UniProt P05364).
T1 construct: obtained by destruction of the microbial cells with ultrasonic waves; endogenous in cells
Briefly: β-lactamase inhibition (iodometric absorbance at 575 nm; β-lactamase solution obtained by ultrasonic destruction of microbial cells). The class given is biochemical. The settings on record: Enterobacter cloacae used as the β-lactamase-producing microorganism; pH 7.0, 30° C., 20 minutes; sample concentration not given. How it is done:
A phosphate buffer solution (pH 7.0, 0.5M, 0.2 ml), a sample*, which is a β-lactamase inhibiting agent, dissolved in the same buffer solution as mentioned above, and water (10 ml) were put in a test tube. In this tube, ampicillin (2 mM, 0.2 ml) in the case of penicillinase, and cephaloridine (2 mM, 0.2 ml) in the case of cephalosporinase, were added. This mixture was stirred moderately for 5 minutes at 30° C. in a thermostat. Microbial cells producing β-lactamase were collected, washed and suspended in the same buffer solution as above and thereto a β-lactamase solution (0.1 ml) obtained by destruction of the microbial cells with ultrasonic waves was added and reacted for 20 minutes.
The reaction was stopped by adding sodium tungstate (0.15M, pH 4.0, 1 ml) and an iodo reagent (3 ml) having iodine (0.1 mM), potassium iodide (1.6 mM) and 0.4% starch solution, (pH 6.0) was added thereto and was allowed to stand for 20 minutes. The absorbance was determined at 575 nm.
On the other hand, the same experiment as above without the sample (Control) was carried out and the absorbances were determined in the same manner as above.
From each determined value as obtained above, the difference between the absorbance of the blank and that of the sample, referred to as As, and the difference between the absorbance of the blank and that of the Control referred to as AB were obtained, and therefrom the inhibiting ratio was calculated by the following equation:
Inhibiting Ratio(%)=(AS/AB)×100
Some of the results as obtained above, in which Enterobacter cloacae was used as the β-lactamase-producing microorganism was used are as follows: […]
`COC(=O)C(C(=O)O)N1C(=O)CC1SC` (stereo not shown) [Sample 1, 1-(1-carboxy-1-methyoxycarbonylmethyl)-4-methylthio-2-azetidinone]: the “Inhibiting Ratio (%)” value turned out to be 46.2%.

With `COC(=O)C(C(=O)O)N1C(=O)CC1S(C)(=O)=O` (stereo not shown) [Sample 2, 1-(1-carboxy-1-methoxycarbonylmethyl)-4-methylsulfonyl-2-azetidinone], the “Inhibiting Ratio (%)” value came out at 51.4%.

With `CC(C)=C(C(=O)O)N1C(=O)[C@@H](NC(=O)[C@H](N)c2ccccc2)[C@H]1S(C)(=O)=O` [Sample 3, (3R,4R)-1-(1-carboxy-2-methylprope-1-nyl)-4-methylsulfonyl-3-[D-(-)-α-aminophenylacetamide]-2-azetidinone], the “Inhibiting Ratio (%)” value was found to be 27.6%.

Regarding `CC(C)=C(C(=O)O)N1C(=O)[C@@H](N)[C@H]1S(C)(=O)=O` [Sample 4, (3R, 4R)-1-(1-carboxy-2-methylprope-1-nyl)-4-methylsulfonyl-3-amino-2-azetidinone], the “Inhibiting Ratio (%)” value is given as 35.8%.
